Reference: patent US20030190325A1, “Novel peroxiredoxin defense system from mycobacterium tuberculosis” (priority 2002, published 2003)

Legend:
TR (bovine) = test: Counter-test on bovine TR; assay type: biochemical; parameters: key: “NE” means no effect; details: at 10 μM
Lpd (porcine) = biological target: T1, Lpd (porcine) (Sus scrofa, UniProt P09623); test: Counter-test on porcine Lpd; assay type: biochemical; parameters: key: “NE” means no effect; details: at 10 μM
T1 sequence (P09623 36-509): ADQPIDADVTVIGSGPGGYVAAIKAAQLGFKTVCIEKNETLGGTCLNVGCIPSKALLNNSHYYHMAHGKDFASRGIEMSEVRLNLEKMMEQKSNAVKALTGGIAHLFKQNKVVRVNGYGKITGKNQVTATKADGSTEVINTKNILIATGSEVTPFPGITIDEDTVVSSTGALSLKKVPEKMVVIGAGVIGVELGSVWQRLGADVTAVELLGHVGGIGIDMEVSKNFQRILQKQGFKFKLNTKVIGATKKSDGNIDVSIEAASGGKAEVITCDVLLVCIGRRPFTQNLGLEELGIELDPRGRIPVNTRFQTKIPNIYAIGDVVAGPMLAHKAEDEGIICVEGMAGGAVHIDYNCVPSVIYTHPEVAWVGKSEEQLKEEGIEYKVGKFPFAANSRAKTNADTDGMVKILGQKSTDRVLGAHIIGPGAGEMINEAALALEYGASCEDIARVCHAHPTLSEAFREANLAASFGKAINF

αKG-DH (porcine) = test: Counter-test on porcine αKG-DH; assay type: biochemical; parameters: key to αKG-DH (porcine): “NE” means no effect; details: at 50 μM
SucB = biological target: T2, SucB (Mycobacterium tuberculosis, UniProt P9WIS7); test: Inhibition constant for the enzyme identified as target: SucB; assay type: biochemical
T2 construct: Lpd and SucB ORFs were amplified by PCR from M. tuberculosis H37Rv genomic DNA; made in house; host or cells: E. coli BL21(DE3), pET11c, culture supplemented with lipoic acid
T2 sequence (P9WIS7 1-553): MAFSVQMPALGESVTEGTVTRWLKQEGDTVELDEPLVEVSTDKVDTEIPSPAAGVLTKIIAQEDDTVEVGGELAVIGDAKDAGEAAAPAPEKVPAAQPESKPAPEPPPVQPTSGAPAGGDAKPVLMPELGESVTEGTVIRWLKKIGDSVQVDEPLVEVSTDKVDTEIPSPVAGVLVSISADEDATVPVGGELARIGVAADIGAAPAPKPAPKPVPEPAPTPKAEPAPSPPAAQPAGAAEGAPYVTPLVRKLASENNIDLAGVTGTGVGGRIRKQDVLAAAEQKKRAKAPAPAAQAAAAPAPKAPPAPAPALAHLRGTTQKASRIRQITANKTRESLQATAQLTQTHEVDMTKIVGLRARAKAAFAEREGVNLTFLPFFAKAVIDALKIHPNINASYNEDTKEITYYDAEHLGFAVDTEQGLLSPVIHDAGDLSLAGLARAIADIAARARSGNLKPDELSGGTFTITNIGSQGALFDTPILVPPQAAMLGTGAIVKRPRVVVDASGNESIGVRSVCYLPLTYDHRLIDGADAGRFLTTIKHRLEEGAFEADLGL
From the text: Table 2 lists the molecular structures of eleven chemical compounds that were identified from the above screen. The first three compounds in Table 2 were further identified as to which of the 3 enzymes (AhpD, Lpd, SucB) each inhibited.

[1] = biological target: the molecule itself; test: X-ray crystal structure at 2.0 Å, homotrimer

Cc1cc(C)cc(/N=C2/NC(=O)/C(=C\c3cc(Br)c(O)c([N+](=O)O)c3)S2)c1 [2368-0687]
TR (bovine) (TR (bovine)): NE at 10 μM
Macs Viabil. (50 μM) (mouse macrophages): 70% ±13% *clu- sters
Lpd (porcine) (Lpd (porcine)): NE at 10 µM
αKG-DH (porcine) inhibition (αKG-DH (porcine)): 5-10% inhi- bition at 50 μM

O=C(O)CN1C(=O)/C(=C\c2ccc(-c3cccc(Cl)c3Cl)o2)SC1=S [3229-2113]
TR (bovine) (TR (bovine)): NE at 10 μM
Macs Viabil. (50 μM) (mouse macrophages): 91% ±5%
Lpd (porcine) (Lpd (porcine)): NE at 10 μM
αKG-DH (porcine) (αKG-DH (porcine)): NE at 50 μM
Ki (SucB): 6 µM

O=C(O)CCN1C(=O)/C(=C\c2ccc(-c3cccc(C(F)(F)F)c3)o2)SC1=S [2556-0286]
TR (bovine) (TR (bovine)): NE at 10 μM
Macs Viabil. (50 μM) (mouse macrophages): 80% ±1%
Lpd (porcine) (Lpd (porcine)): NE at 10 μM
αKG-DH (porcine) (αKG-DH (porcine)): NE at 50 μM
Ki (SucB): 3 µM

B1: AhpD (protein encoded by the ahpD gene, Rv2429, of Mycobacterium tuberculosis) (enzyme)
chain: MSIEKLKAALPEYAKDIKLNLSSITRSSVLDQEQLWGTLLASAAATRNPQVLADIGAEATDHLSAAARHAALGAAAIMGMNNVFYRGRGFLEGRYDDLRPGLRMNIIANPGIPKANFELWSFAVSAINGCSHCLVAHEHTLRTVGVDREAIFEALKAAAIVSGVAQALATIEALSPS
notes: Homotrimer in the crystal; also called recombinant AhpD
binding result [1]: binds
